Measurements published in patent US10617705B1, “Isoquercitrin compositions” (priority 2019, dated 2020).

Assay: Stability of isoquercitrin (or catechin) in solution with L-arginine and sodium ascorbate at 50° C., by HPLC
Format: physicochemical
Conditions: aqueous solution with L-arginine and sodium ascorbate; for amount of intact compound remaining, of the initial amount in the solution: HPLC
Procedure: An exemplary isoquercitrin/L-arginine mixture was prepared by mixing 0.01 mol isoquercitrin with an aqueous solution containing 0.02 mol L-arginine, heating the mixture to 80° C. until the isoquercitrin dissolved completely, and adding 0.001 mol sodium ascorbate. After cooling, the stability of isoquercitrin was tested by heating the mixture to 50° C. and quantifying by HPLC the amount of intact isoquercitrin remaining after 0 h, 5 h, and 24 h.

For `O=c1c(O[C@@H]2O[C@H](CO)[C@@H](O)[C@H](O)[C@H]2O)c(-c2ccc(O)c(O)c2)oc2cc(O)cc(O)c12` [isoquercitrin], the “amount of intact compound remaining, of the initial amount in the solution” value (5 h at 50° C.) was 100%, the “amount of intact compound remaining, of the initial amount in the solution” value (24 h at 50° C.) was 98.1% and the compound degraded (after 24 h at 50° C.) was 1.9%.
